Target: T1, Pirin (Homo sapiens, UniProt O00625)
T1 construct: gene PIR; recombinant human pirin (Abcam, ab123170)
T1 sequence (O00625 1-290): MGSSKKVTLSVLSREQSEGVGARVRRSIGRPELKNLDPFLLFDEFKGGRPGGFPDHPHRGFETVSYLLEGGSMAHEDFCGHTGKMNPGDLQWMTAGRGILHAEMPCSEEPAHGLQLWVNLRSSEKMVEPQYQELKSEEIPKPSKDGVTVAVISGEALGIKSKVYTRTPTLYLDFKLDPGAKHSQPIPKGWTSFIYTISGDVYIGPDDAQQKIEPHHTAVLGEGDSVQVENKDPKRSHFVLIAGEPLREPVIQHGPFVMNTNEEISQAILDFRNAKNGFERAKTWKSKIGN
Test: SPR (Biacore T200), steady state; also TPP-PISA stabilization in extracts
Type: binding

Compound: CC(C)Cc1ccc(C(C)C(=O)O)cc1 (stereo not shown) [Ibuprofen]
- Kd: ~546 µM

Reference: publication PMC11484808, “Streamlined analysis of drug targets by proteome integral solubility alteration indicates organ-specific engagement” (Nature Communications, 2024)
